# Data taken from article PMC10487733, “Synthesis, Conformational Analysis and Antitumor Activity of the Naturally Occurring Antimicrobial Medium-Length Peptaibol Pentadecaibin and Spin-Labeled Analogs Thereof” (International Journal of Molecular Sciences, 2023).
# Where a SMILES comes first, the peptide text is derived from it. [ ]: non-standard residue; d: D form. TOAC = CC1(C)CC(N)(C(=O)O)CC(C)(C)N1[O]; Phe(ol) = N[C@H](CO)Cc1ccccc1; Aib = CC(C)(N)C(=O)O
# Assays:
# [1] = Circular dichroism in SDS micelles (helix aggregation index); assay type: physicochemical; settings: CD in 100 mM aqueous SDS micelles, 25 °C, 1 mm cell, 16 scans; ratio is ≈ 0.9 in CH3OH
# Method: We performed a CD analysis of the peptides in methanol and in the presence of micelles of sodium dodecyl sulfate (SDS) 100 mM in water.
# CD spectra of α-helical peptides feature two negative and one positive maxima centered at about 208, 222 and 195 nm, respectively. Aib-containing peptides are known to fold in 3_10-helices, which is common for peptaibols. In this case, the first negative maximum shifts from 208 to about 205 nm.
# CD measurements were acquired on a Jasco J-1500 spectrophotometer (Tokyo, Japan), using a 1 mm pathlength quartz cell (Hellma Analytics, Munich, Germany). Methanol or a solution of sodium dodecyl sulfate (SDS) 100 mM in milliQ water was used as solvent. An amount of 1 mM of solutions of the three peptides in each of the two solvents of choice was prepared. Then, 300 µL of each solution was inserted in the 1 mm quartz cell and the cell put into the cell holder of the Jasco J-1500 instrument. The measurements were performed at 25 °C, acquiring 16 scans. The temperature was kept constant by means of an external Peltier thermostat (ThermoHaake C25P, Karlbruhe, Germany).
# [2] = system: A549 (human lung adenocarcinoma); settings: A549 cells, 24 h exposure to 0–20 µM peptaibol, MTS read-out at 490 nm; value [95% CI]; at least three independent experiments in triplicate
# [3] = system: SK-OV-3 (human ovarian adenocarcinoma); settings: SK-OV-3 cells, 24 h exposure to 0–20 µM peptaibol, MTS read-out at 490 nm; value [95% CI]; at least three independent experiments in triplicate
# [4] = system: MUG-Mel2 (human melanoma); settings: MUG-Mel2 cells, 24 h exposure to 0–20 µM peptaibol, MTS read-out at 490 nm; CI not given; at least three independent experiments in triplicate
# [5] = system: MDA-MB-231 (human triple-negative breast cancer); settings: MDA-MB-231 cells, 24 h exposure to 0–20 µM peptaibol, MTS read-out at 490 nm; value [95% CI]; at least three independent experiments in triplicate
# [6] = Peptide-induced carboxyfluorescein leakage from PE/PG liposomes; settings: PE/PG 7:3 SUVs 0.06 mM, HEPES pH 7.4, 20 min incubation, fluorescence 488/520 nm, relative to Triton X-100; qualitative; more efficient than trichogin GA IV, particularly on these SUVs
# Method: (§1) The assay was carried out on model liposomes (small unilamellar vesicles, SUV) of two different compositions, namely phosphatidylcholine/cholesterol (PC/Ch) 7:3 and phosphatidylethanolamine/phosphatidylglycerol (PE/PG) 7:3. Using fluorescence measurements, the ability of the peptides to induce the release of the carboxyfluorescein (CF) dye previously included within SUVs was evaluated.
# (§2) The chosen lipid compositions result in different net surface charges on the SUVs. […] On the other hand, when the peptide perturbs the artificial membrane, it causes the leakage of the CF, and therefore leads to an increase in fluorescence intensity. The maximum value of fluorescence intensity, corresponding to the complete destruction of the vesicles via the surfactant Triton X-100, was used as a reference. […]
# (§3) Phosphatidylcholine (PC), phosphatidylglycerol (PG), phosphatidylethanolamine (PE) and cholesterol (Ch) were purchased from Avanti Polar Lipids (Alabaster, AL, USA). […] To evaluate the peptide ability to modulate membrane permeability, CF leakage from the liposomes was measured via fluorescence spectroscopy on a Perkin Elmer (Waltham, MA, USA) MPF-66 spectrofluorimeter. The procedure was as follows: 2.5 mL of each SUV at 0.06 mM concentration was inserted in twelve disposable fluorescence cuvettes and fluorescence was recorded (λexc = 488 nm) for all of them at 520 nm (F0). […]
# [7] = Peptide-induced carboxyfluorescein leakage from PC/Ch liposomes; settings: PC/Ch 7:3 SUVs 0.06 mM, HEPES pH 7.4, 20 min incubation, fluorescence 488/520 nm, relative to Triton X-100; qualitative; more efficient than trichogin GA IV
# Method: as §1, §2, §3
SMILES,ratio R = [θ]222/[θ]208 (index of aggregation between helices) [1],IC50 [2] [µM],IC50 [3] [µM],IC50 [4] [µM],IC50 [5] [µM],membrane activity (CF leakage from SUVs) [6],membrane activity (CF leakage from SUVs) [7]
"CC(=O)NC1(C(=O)NCC(=O)N[C@@H](C)C(=O)N[C@@H](CC(C)C)C(=O)NC(C)(C)C(=O)N[C@@H](CCC(N)=O)C(=O)NC(C)(C)C(=O)N[C@H](C(=O)NC(C)(C)C(=O)N[C@@H](C)C(=O)NC(C)(C)C(=O)NC(C)(C)C(=O)NC(C)(C)C(=O)N[C@@H](CCC(N)=O)C(=O)N[C@H](CO)Cc2ccccc2)C(C)C)CC(C)(C)N([O])C(C)(C)C1 [To1-VX, [Toac^1]-pentadecaibin] (Ac-[TOAC]GAL[Aib]Q[Aib]V[Aib]A[Aib][Aib][Aib]Q[Phe(ol)])",greater than 1,11.1,9.56,10.1,7.98,–,–
"CC(=O)NC(C)(C)C(=O)NCC(=O)N[C@@H](C)C(=O)N[C@@H](CC(C)C)C(=O)NC(C)(C)C(=O)N[C@@H](CCC(N)=O)C(=O)NC(C)(C)C(=O)N[C@H](C(=O)NC(C)(C)C(=O)N[C@@H](C)C(=O)NC1(C(=O)NC(C)(C)C(=O)NC(C)(C)C(=O)N[C@@H](CCC(N)=O)C(=O)N[C@H](CO)Cc2ccccc2)CC(C)(C)N([O])C(C)(C)C1)C(C)C [To11-VX, [Toac^11]-pentadecaibin] (Ac-[Aib]GAL[Aib]Q[Aib]V[Aib]A[TOAC][Aib][Aib]Q[Phe(ol)])",greater than 1,9.7,–,13.6,8.04,–,–
"CC(=O)NC(C)(C)C(=O)NCC(=O)N[C@@H](C)C(=O)N[C@@H](CC(C)C)C(=O)NC(C)(C)C(=O)N[C@@H](CCC(N)=O)C(=O)NC(C)(C)C(=O)N[C@H](C(=O)NC(C)(C)C(=O)N[C@@H](C)C(=O)NC(C)(C)C(=O)NC(C)(C)C(=O)NC(C)(C)C(=O)N[C@@H](CCC(N)=O)C(=O)N[C@H](CO)Cc1ccccc1)C(C)C [VX, pentadecaibin] (Ac-[Aib]GAL[Aib]Q[Aib]V[Aib]A[Aib][Aib][Aib]Q[Phe(ol)])",greater than 1,9.1,11.1,14.2,8.79,equally membrane active,equally membrane active
